System: ConA-stimulated mouse spleen cells
Test: ConA-stimulated mouse spleen cell proliferation (CFSE, flow cytometry)
Type: cell-based
Settings: final concentration 10 nM, 72 hours, read-out: inhibition rate on the proliferation of spleen cells
Experimental: A method for preparing a suspension of mouse spleen cells added with a stimulator was: 1-week-old C57BL/6 mice were sacrificed by neck dislocation, then the spleen was taken, ground with a 200-mesh sieve, and then rinsed with a lymphatic separation fluid, and the separation solution containing lymphocytes was collected, resuspended by using a RPMI-1640 complete medium containing 10% fetal bovine serum and centrifuged under a centrifugal force of 800 g at low temperature for 30 minutes; and after completion of centrifugation, the lymphocyte layer was pipetted, then resuspended with a RPMI-1640 complete medium containing 10% fetal bovine serum, and then centrifuged under a centrifugal force of 250 g for 10 minutes at low temperature. The obtained lymphocyte layer was resuspended with the RPMI-1640 complete medium containing 10% fetal bovine serum again, and added with a concanavalin A(ConA) suspension resuspended with the RPMI-1640 complete medium containing 10% fetal bovine serum as a stimulator. […]

C=CC[C@@H]1/C=C(\C)C[C@H](C)C[C@H](OC)[C@H]2O[C@@](O)(C(=O)C(=O)N3CCCC[C@H]3C(=O)O[C@H](/C(C)=C/[C@@H]3CC[C@@H](O)[C@H](OC)C3)[C@H](C)[C@@H](O)CC1=O)[C@H](C)C[C@@H]2OC [FK506, tacrolimus]
inhibition at 0.01 µM: 82%

From patent publication US20260248860A1, “LIVER DISEASE REGULATORY FORMULATION AND USE THEREOF” (SHANGHAI CELLIVER BIOTECHNOLOGY CO., LTD., priority 2021, published 2026)
